Assay results taken from ChEMBL document CHEMBL4507289, “Data for DCP probe GSM1” (2021).

How the values were obtained:
[1] = target: Phosphatidylinositol 4,5-bisphosphate 3-kinase catalytic subunit gamma isoform (Homo sapiens) (UniProt P48736); details: Compound concentration 1000.0 nM
[2] = target: Serine/threonine-protein kinase PknB (Mycobacterium tuberculosis) (UniProt P9WI81); details: Compound concentration 1000.0 nM
[3] = target: Protein kinase C epsilon type (Homo sapiens) (UniProt Q02156); details: Compound concentration 1000.0 nM
[4] = target: Epithelial discoidin domain-containing receptor 1 (Homo sapiens) (UniProt Q08345); details: Compound concentration 1000.0 nM
[5] = target: Ribosomal protein S6 kinase alpha-4 (Homo sapiens) (UniProt O75676); details: Compound concentration 1000.0 nM
Chain of Ribosomal protein S6 kinase alpha-4 (Homo sapiens) (O75676 whole entry, looked up): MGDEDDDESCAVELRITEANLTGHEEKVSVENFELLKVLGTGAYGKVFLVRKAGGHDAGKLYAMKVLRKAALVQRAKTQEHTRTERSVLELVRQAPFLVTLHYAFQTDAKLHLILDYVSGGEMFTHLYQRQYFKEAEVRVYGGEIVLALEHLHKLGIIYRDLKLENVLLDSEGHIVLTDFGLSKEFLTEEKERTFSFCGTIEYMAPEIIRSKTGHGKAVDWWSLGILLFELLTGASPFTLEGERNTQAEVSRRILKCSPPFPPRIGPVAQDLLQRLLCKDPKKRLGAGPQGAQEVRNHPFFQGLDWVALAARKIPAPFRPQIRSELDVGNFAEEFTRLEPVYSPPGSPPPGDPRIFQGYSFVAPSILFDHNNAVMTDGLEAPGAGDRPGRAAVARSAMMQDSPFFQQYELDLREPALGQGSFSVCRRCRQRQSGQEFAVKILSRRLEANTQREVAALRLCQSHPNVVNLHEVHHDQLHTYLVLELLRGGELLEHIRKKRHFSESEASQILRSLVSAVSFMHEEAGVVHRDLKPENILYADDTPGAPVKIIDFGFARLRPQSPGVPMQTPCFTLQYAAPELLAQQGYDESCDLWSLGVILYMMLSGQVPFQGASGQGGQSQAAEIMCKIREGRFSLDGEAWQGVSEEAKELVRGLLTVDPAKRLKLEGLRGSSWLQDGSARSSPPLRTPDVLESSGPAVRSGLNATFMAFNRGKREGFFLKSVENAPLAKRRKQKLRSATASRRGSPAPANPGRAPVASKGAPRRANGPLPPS

[6] = target: Cyclin-dependent kinase 18 (Homo sapiens) (UniProt Q07002); details: Compound concentration 1000.0 nM
[7] = target: Receptor-interacting serine/threonine-protein kinase 4 (Homo sapiens) (UniProt P57078); details: Compound concentration 1000.0 nM
[8] = target: Muscarinic acetylcholine receptor M3 (Homo sapiens) (UniProt P20309); details: Compound concentration 10.0 uM
[9] = system: Epidermal growth factor receptor (Homo sapiens), P00533 [UNDEFINED MUTATION]; details: Compound concentration 1000.0 nM
[10] = target: Eukaryotic translation initiation factor 2-alpha kinase 1 (Homo sapiens) (UniProt Q9BQI3); details: Compound concentration 1000.0 nM
[11] = target: Insulin receptor (Homo sapiens) (UniProt P06213); details: Compound concentration 1000.0 nM
[12] = target: Serine/threonine-protein kinase SIK1 (Homo sapiens) (UniProt P57059); details: Compound concentration 1000.0 nM
[13] = target: STE20/SPS1-related proline-alanine-rich protein kinase (Homo sapiens) (UniProt Q9UEW8); details: Compound concentration 1000.0 nM
[14] = target: 5-hydroxytryptamine receptor 1A (Homo sapiens) (UniProt P08908); details: Compound concentration 10.0 uM
[15] = target: Fibroblast growth factor receptor 4 (Homo sapiens) (UniProt P22455); details: Compound concentration 1000.0 nM
[16] = target: Ribosomal protein S6 kinase alpha-5 (Homo sapiens) (UniProt O75582); details: Compound concentration 1000.0 nM
[17] = target: Tyrosine-protein kinase Fgr (Homo sapiens) (UniProt P09769); details: Compound concentration 1000.0 nM
[18] = target: Discoidin domain-containing receptor 2 (Homo sapiens) (UniProt Q16832); details: Compound concentration 1000.0 nM
[19] = target: Tyrosine-protein kinase Lck (Homo sapiens) (UniProt P06239); details: Compound concentration 1000.0 nM
[20] = system: Tyrosine-protein kinase ABL1 (Homo sapiens), P00519 [M351T]; details: Compound concentration 1000.0 nM
[21] = system: ALK tyrosine kinase receptor (Homo sapiens), Q9UM73 [C1156Y]; details: Compound concentration 1000.0 nM
[22] = target: Ephrin type-A receptor 4 (Homo sapiens) (UniProt P54764); details: Compound concentration 1000.0 nM
[23] = target: 5-hydroxytryptamine receptor 7 (Homo sapiens) (UniProt P34969); details: Compound concentration 10.0 uM
[24] = system: Mast/stem cell growth factor receptor Kit (Homo sapiens), P10721 [A829P]; details: Compound concentration 1000.0 nM
[25] = target: Cyclin-dependent kinase 11B (Homo sapiens) (UniProt P21127); details: Compound concentration 1000.0 nM
[26] = target: Serine/threonine-protein kinase PAK 4 (Homo sapiens) (UniProt O96013); details: Compound concentration 1000.0 nM
[27] = target: Muscarinic acetylcholine receptor M4 (Homo sapiens) (UniProt P08173); details: Compound concentration 10.0 uM
[28] = system: Phosphatidylinositol 4,5-bisphosphate 3-kinase catalytic subunit alpha isoform (Homo sapiens), P42336 [C420R]; details: Compound concentration 1000.0 nM
[29] = target: SNF-related serine/threonine-protein kinase (Homo sapiens) (UniProt Q9NRH2); details: Compound concentration 1000.0 nM
[30] = target: Serine/threonine-protein kinase 16 (Homo sapiens) (UniProt O75716); details: Compound concentration 1000.0 nM
Chain of Serine/threonine-protein kinase 16 (Homo sapiens) (O75716 whole entry): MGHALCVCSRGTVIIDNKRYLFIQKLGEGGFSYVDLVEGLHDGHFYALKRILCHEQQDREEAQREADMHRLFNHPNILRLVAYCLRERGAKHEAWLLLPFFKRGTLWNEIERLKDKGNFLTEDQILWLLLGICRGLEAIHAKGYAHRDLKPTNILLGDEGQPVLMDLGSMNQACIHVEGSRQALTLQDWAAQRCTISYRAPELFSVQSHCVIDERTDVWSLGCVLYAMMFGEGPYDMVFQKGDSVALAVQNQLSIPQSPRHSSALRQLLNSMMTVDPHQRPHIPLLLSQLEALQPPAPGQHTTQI

[31] = system: Proto-oncogene tyrosine-protein kinase receptor Ret (Homo sapiens), P07949 [V804L]; details: Compound concentration 1000.0 nM
Chain of Proto-oncogene tyrosine-protein kinase receptor Ret (Homo sapiens), P07949 [V804L] (P07949 whole entry V804L): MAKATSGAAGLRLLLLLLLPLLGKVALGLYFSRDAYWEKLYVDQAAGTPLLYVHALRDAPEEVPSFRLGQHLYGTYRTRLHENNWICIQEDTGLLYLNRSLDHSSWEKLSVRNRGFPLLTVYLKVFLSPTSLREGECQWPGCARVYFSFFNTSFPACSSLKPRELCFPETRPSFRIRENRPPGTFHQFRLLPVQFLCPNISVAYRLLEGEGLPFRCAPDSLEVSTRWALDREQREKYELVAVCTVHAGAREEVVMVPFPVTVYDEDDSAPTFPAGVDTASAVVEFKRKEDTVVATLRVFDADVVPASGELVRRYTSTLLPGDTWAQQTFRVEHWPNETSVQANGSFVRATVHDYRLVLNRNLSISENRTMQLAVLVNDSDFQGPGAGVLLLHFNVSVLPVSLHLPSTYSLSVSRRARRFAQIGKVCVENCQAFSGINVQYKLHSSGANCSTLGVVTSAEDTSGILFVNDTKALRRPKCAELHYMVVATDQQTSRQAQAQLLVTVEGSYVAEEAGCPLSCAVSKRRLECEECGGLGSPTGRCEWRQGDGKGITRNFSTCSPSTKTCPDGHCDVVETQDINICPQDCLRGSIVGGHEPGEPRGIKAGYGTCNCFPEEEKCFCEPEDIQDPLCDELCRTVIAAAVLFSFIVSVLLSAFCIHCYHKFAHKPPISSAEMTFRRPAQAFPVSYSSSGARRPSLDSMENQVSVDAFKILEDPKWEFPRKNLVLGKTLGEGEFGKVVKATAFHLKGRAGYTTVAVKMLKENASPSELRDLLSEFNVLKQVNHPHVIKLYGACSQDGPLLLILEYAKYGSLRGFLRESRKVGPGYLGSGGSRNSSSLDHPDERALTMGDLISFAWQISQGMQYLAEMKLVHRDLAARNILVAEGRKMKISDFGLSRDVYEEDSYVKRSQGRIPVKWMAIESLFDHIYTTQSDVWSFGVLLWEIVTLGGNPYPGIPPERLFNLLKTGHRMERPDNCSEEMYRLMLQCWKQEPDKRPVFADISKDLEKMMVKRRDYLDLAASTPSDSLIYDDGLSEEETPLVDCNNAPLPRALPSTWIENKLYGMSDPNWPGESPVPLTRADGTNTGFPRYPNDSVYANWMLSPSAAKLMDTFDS

[32] = target: Serine/threonine-protein kinase PRP4 homolog (Homo sapiens) (UniProt Q13523); details: Compound concentration 1000.0 nM
Chain of Serine/threonine-protein kinase PRP4 homolog (Homo sapiens) (Q13523 whole entry): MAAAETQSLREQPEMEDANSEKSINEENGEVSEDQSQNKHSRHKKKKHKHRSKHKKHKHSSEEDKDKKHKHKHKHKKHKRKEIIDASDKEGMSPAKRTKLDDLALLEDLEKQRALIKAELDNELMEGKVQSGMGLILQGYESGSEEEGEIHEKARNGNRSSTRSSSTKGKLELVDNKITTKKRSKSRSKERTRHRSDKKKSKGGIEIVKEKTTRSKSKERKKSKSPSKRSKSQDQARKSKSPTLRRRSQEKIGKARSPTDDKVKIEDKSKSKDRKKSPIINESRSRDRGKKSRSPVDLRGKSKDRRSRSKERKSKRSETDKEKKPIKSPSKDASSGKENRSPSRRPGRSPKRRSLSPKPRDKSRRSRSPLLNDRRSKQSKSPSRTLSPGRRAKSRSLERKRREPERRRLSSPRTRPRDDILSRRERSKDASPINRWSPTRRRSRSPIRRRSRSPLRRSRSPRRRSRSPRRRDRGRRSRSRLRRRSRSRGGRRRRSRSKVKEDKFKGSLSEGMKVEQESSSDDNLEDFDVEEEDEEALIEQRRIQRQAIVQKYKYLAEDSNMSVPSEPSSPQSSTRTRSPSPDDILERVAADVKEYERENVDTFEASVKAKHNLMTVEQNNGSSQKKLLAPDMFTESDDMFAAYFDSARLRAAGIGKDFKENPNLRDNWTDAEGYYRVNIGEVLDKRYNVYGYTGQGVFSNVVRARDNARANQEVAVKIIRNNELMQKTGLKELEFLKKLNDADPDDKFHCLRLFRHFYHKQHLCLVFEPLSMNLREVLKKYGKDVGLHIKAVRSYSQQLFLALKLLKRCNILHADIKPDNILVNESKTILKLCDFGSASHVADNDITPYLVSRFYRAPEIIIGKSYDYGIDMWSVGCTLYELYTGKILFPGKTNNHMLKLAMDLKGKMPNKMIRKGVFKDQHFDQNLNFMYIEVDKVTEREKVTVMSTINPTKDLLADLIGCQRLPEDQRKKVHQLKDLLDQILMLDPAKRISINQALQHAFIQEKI

[33] = target: Proto-oncogene tyrosine-protein kinase Src (Homo sapiens) (UniProt P12931); details: Compound concentration 1000.0 nM
[34] = target: Sodium-dependent serotonin transporter (Homo sapiens, UniProt P31645); details: Compound concentration 10.0 uM
Chain of Sodium-dependent serotonin transporter (P31645 whole entry, looked up): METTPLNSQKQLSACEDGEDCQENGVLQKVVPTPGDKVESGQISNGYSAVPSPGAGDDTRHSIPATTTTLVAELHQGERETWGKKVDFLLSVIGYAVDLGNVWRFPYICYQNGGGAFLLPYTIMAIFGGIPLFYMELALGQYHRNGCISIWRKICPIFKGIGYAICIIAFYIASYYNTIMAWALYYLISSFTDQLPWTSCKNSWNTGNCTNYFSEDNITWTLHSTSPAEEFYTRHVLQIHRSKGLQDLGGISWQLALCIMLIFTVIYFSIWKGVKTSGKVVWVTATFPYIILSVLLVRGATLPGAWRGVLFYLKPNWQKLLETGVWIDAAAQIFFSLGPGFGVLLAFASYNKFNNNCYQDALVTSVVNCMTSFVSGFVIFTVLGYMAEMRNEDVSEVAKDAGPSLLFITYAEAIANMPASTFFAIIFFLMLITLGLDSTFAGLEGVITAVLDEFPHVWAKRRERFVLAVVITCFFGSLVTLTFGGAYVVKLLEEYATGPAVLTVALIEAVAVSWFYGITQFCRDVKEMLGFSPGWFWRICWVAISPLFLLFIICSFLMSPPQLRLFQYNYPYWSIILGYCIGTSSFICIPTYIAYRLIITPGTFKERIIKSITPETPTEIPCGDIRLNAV

[35] = target: Serine/threonine-protein kinase MRCK beta (Homo sapiens) (UniProt Q9Y5S2); details: Compound concentration 1000.0 nM
[36] = target: Serine/threonine-protein kinase haspin (Homo sapiens) (UniProt Q8TF76); details: Compound concentration 1000.0 nM
[37] = target: Cyclin-dependent kinase 19 (Homo sapiens) (UniProt Q9BWU1); details: Compound concentration 1000.0 nM
[38] = target: D(1A) dopamine receptor (Homo sapiens) (UniProt P21728); details: Compound concentration 10.0 uM
[39] = target: Serine/threonine-protein kinase WNK2 (Homo sapiens) (UniProt Q9Y3S1); details: Compound concentration 1000.0 nM
[40] = target: ALK tyrosine kinase receptor (Homo sapiens) (UniProt Q9UM73); details: Compound concentration 1000.0 nM
Rattus norvegicus = species on record: Rattus norvegicus; details: Compound concentration 10.0 uM
[41] = target: Proto-oncogene tyrosine-protein kinase receptor Ret (Homo sapiens) (UniProt P07949); details: Compound concentration 1000.0 nM
[42] = target: TGF-beta receptor type-1 (Homo sapiens) (UniProt P36897); details: Compound concentration 1000.0 nM
[43] = target: Myosin-IIIb (Homo sapiens) (UniProt Q8WXR4); details: Compound concentration 1000.0 nM
[44] = target: Phosphorylase b kinase regulatory subunit alpha, liver isoform (Homo sapiens) (UniProt P46019); details: Compound concentration 1000.0 nM
Chain of Phosphorylase b kinase regulatory subunit alpha, liver isoform (Homo sapiens) (P46019 whole entry, canonical isoform): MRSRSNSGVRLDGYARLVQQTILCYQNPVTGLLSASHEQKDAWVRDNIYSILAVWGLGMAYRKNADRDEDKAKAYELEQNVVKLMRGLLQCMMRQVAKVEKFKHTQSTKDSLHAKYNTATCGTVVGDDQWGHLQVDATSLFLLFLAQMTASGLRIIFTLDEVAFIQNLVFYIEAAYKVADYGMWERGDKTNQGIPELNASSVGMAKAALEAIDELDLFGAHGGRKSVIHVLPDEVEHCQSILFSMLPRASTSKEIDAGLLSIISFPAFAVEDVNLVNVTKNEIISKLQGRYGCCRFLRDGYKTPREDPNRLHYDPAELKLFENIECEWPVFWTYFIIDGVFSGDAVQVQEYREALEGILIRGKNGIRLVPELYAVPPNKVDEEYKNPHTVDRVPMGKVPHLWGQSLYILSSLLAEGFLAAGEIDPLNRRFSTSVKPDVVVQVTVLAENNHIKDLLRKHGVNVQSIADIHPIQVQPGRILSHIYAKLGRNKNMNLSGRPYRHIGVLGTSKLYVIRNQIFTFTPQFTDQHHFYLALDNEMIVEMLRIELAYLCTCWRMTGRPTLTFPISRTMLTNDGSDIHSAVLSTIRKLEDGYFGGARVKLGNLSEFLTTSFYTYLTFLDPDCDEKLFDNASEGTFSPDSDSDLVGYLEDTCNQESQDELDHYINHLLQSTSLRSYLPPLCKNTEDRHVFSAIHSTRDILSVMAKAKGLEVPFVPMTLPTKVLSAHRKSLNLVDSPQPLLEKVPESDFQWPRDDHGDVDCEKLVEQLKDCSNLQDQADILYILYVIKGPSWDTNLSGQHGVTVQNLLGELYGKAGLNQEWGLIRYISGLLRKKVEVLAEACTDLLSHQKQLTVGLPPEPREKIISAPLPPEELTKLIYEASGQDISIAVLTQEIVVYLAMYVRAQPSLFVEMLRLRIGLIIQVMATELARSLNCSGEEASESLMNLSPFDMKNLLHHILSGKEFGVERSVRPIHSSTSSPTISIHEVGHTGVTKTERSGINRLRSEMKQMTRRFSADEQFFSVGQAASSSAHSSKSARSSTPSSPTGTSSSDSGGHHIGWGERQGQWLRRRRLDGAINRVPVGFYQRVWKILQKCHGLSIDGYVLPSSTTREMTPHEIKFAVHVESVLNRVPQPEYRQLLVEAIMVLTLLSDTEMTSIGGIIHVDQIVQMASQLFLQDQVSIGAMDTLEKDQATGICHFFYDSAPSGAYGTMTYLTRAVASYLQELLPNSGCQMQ

## COc1cc(-c2cn([C@H]3CCc4c(F)cccc4N(CC(F)(F)F)C3=O)nn2)ccc1-n1cnc(C)c1
[1]
  residual activity: 84%
[2]
  residual activity: 82%
[3]
  residual activity: 100%
[4]
  residual activity: 100%
[5]
  residual activity: 100%
[6]
  residual activity: 100%
[7]
  residual activity: 56%
[8]
  inhibition: -4.42%
[9]
  residual activity: 94%
[10]
  residual activity: 100%
[11]
  residual activity: 90%
[12]
  residual activity: 100%
[13]
  residual activity: 100%
[14]
  inhibition: 19.4%
[15]
  residual activity: 100%
[16]
  residual activity: 73%
[17]
  residual activity: 100%
[18]
  residual activity: 100%
[19]
  residual activity: 100%
[20]
  residual activity: 95%
[21]
  residual activity: 100%
[22]
  residual activity: 100%
[23]
  inhibition: 26.8%
[24]
  residual activity: 92%
[25]
  residual activity: 95%
[26]
  residual activity: 99%
[27]
  inhibition: 26.2%
[28]
  residual activity: 75%
[29]
  residual activity: 100%
[30]
  residual activity: 100%
[31]
  residual activity: 100%
[32]
  residual activity: 100%
[33]
  residual activity: 93%
[34]
  inhibition: 88.6%
[35]
  residual activity: 100%
[36]
  residual activity: 87%
[37]
  residual activity: 97%
[38]
  inhibition: 5.87%
[39]
  residual activity: 53%
[40]
  residual activity: 100%
Rattus norvegicus
  inhibition: 8.82%
[41]
  residual activity: 84%
[42]
  residual activity: 100%
[43]
  residual activity: 100%
[44]
  residual activity: 100%

## COc1cc(-c2cn([C@H]3CCc4ccccc4N(CC(F)(F)F)C3=O)nn2)ccc1-n1ccc(C)n1
[1]
  residual activity: 67%
[2]
  residual activity: 78%
[3]
  residual activity: 100%
[4]
  residual activity: 100%
[5]
  residual activity: 97%
[6]
  residual activity: 100%
[7]
  residual activity: 52%
[8]
  inhibition: -6.94%
[9]
  residual activity: 100%
[10]
  residual activity: 93%
[11]
  residual activity: 69%
[12]
  residual activity: 100%
[13]
  residual activity: 98%
[14]
  inhibition: 1.18%
[15]
  residual activity: 100%
[16]
  residual activity: 71%
[17]
  residual activity: 90%
[18]
  residual activity: 99%
[19]
  residual activity: 100%
[20]
  residual activity: 64%
[21]
  residual activity: 100%
[22]
  residual activity: 92%
[23]
  inhibition: 5.84%
[24]
  residual activity: 68%
[25]
  residual activity: 100%
[26]
  residual activity: 100%
[27]
  inhibition: 6.94%
[28]
  residual activity: 68%
[29]
  residual activity: 99%
[30]
  residual activity: 100%
[31]
  residual activity: 100%
[32]
  residual activity: 93%
[33]
  residual activity: 100%
[34]
  inhibition: 90.6%
[35]
  residual activity: 100%
[36]
  residual activity: 83%
[37]
  residual activity: 72%
[38]
  inhibition: 3.62%
[39]
  residual activity: 87%
[40]
  residual activity: 92%
Rattus norvegicus
  inhibition: 59.5%
[41]
  residual activity: 91%
[42]
  residual activity: 100%
[43]
  residual activity: 100%
[44]
  residual activity: 100%
